Data as given in PubChem BioAssay (NCI).
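96-well plates; 48 h exposure; 5 concentrations. Endpoints by linear interpolation between flanking doses. Not reached: highest tested concentration assigned. Here, GI50 denotes the concentration required for 50% inhibition of growth. At the TGI there is no net growth.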

Key:
Assay in all cases: inhibition of tumour cell growth, NCI panel, 48 h
A498 renal = tested on: A498 renal
PC-3 prostate = tested on: PC-3 prostate
OVCAR-8 ovarian = tested on: OVCAR-8 ovarian
HL-60(TB) leukemia = tested on: HL-60(TB) leukemia
UACC-257 melanoma = tested on: UACC-257 melanoma
CAKI-1 renal = tested on: CAKI-1 renal
SNB-19 CNS = tested on: SNB-19 CNS
EKVX NSCLC = tested on: EKVX NSCLC
ACHN renal = tested on: ACHN renal
OVCAR-5 ovarian = tested on: OVCAR-5 ovarian
HCC-2998 colon = tested on: HCC-2998 colon
COLO 205 colon = tested on: COLO 205 colon
BT-549 breast = tested on: BT-549 breast
KM12 colon = tested on: KM12 colon
UACC-62 melanoma = tested on: UACC-62 melanoma
NCI-H522 lung = tested on: NCI-H522 lung
UO-31 renal = tested on: UO-31 renal
HOP-92 NSCLC = tested on: HOP-92 NSCLC
OVCAR-3 ovarian = tested on: OVCAR-3 ovarian
SF-295 CNS = tested on: SF-295 CNS
SF-539 CNS = tested on: SF-539 CNS
NCI-H460 lung = tested on: NCI-H460 lung
HCT-116 colon = tested on: HCT-116 colon
SK-MEL-28 melanoma = tested on: SK-MEL-28 melanoma
NCI/ADR-RES ovarian = tested on: NCI/ADR-RES ovarian
786-0 renal = tested on: 786-0 renal
A549 NSCLC = tested on: A549 NSCLC
RXF 393 renal = tested on: RXF 393 renal
T-47D breast = tested on: T-47D breast
MOLT-4 leukemia = tested on: MOLT-4 leukemia
DU-145 prostate = tested on: DU-145 prostate
MCF7 breast = tested on: MCF7 breast
SK-OV-3 ovarian = tested on: SK-OV-3 ovarian
HT29 colon = tested on: HT29 colon
SK-MEL-5 melanoma = tested on: SK-MEL-5 melanoma
MDA-MB-231 breast = tested on: MDA-MB-231 breast
M14 melanoma = tested on: M14 melanoma
SN12C renal = tested on: SN12C renal
HOP-62 NSCLC = tested on: HOP-62 NSCLC
TK-10 renal = tested on: TK-10 renal
RPMI-8226 leukemia = tested on: RPMI-8226 leukemia
SF-268 CNS = tested on: SF-268 CNS
OVCAR-4 ovarian = tested on: OVCAR-4 ovarian
U251 CNS = tested on: U251 CNS
K-562 leukemia = tested on: K-562 leukemia
NCI-H226 lung = tested on: NCI-H226 lung
LOX IMVI melanoma = tested on: LOX IMVI melanoma
SK-MEL-2 melanoma = tested on: SK-MEL-2 melanoma
CCRF-CEM leukemia = tested on: CCRF-CEM leukemia
SNB-75 CNS = tested on: SNB-75 CNS
IGROV1 ovarian = tested on: IGROV1 ovarian
HS 578T breast = tested on: HS 578T breast
HCT-15 colon = tested on: HCT-15 colon
SR leukemia = tested on: SR leukemia
SW-620 colon = tested on: SW-620 colon
NCI-H23 lung = tested on: NCI-H23 lung
MDA-MB-435 = tested on: MDA-MB-435
MALME-3M melanoma = tested on: MALME-3M melanoma

For `Cc1cc(-c2ccc(C3C(C#N)=C(N)Oc4c3c(=O)oc3ccccc43)cc2)cnc1F` (stereo unspecified), the GI50 (A498 renal) was > 100 µM, the TGI (A498 renal) was > 100 µM and the GI50 (PC-3 prostate) was 40.2 µM. The TGI (PC-3 prostate) was > 100 µM, the GI50 (OVCAR-8 ovarian) was > 100 µM and the TGI (OVCAR-8 ovarian) was > 100 µM. The GI50 (HL-60(TB) leukemia) was 43.4 µM, the TGI (HL-60(TB) leukemia) was > 100 µM and the GI50 (UACC-257 melanoma) was > 100 µM. The TGI (UACC-257 melanoma) was > 100 µM, the GI50 (CAKI-1 renal) was 41 µM and the TGI (CAKI-1 renal) was > 100 µM. For the same molecule, the GI50 (SNB-19 CNS) was > 100 µM, the TGI (SNB-19 CNS) was > 100 µM and the GI50 (EKVX NSCLC) was 71.3 µM. For the same molecule, the TGI (EKVX NSCLC) was > 100 µM, the GI50 (ACHN renal) was 55.9 µM and the TGI (ACHN renal) was > 100 µM. For the same molecule, the GI50 (OVCAR-5 ovarian) was 85.9 µM, the TGI (OVCAR-5 ovarian) was > 100 µM and the GI50 (HCC-2998 colon) was 89 µM. For the same molecule, the TGI (HCC-2998 colon) was > 100 µM, the GI50 (COLO 205 colon) was > 100 µM and the TGI (COLO 205 colon) was > 100 µM. The GI50 (BT-549 breast) was 23.9 µM, the TGI (BT-549 breast) was > 100 µM and the GI50 (KM12 colon) was > 100 µM. The TGI (KM12 colon) was > 100 µM, the GI50 (UACC-62 melanoma) was 43.8 µM and the TGI (UACC-62 melanoma) was > 100 µM. For the same molecule, the GI50 (NCI-H522 lung) was 22.5 µM, the TGI (NCI-H522 lung) was > 100 µM and the GI50 (UO-31 renal) was 26.9 µM. For the same molecule, the TGI (UO-31 renal) was > 100 µM, the GI50 (HOP-92 NSCLC) was 1.63 µM and the TGI (HOP-92 NSCLC) was 74.1 µM. The GI50 (OVCAR-3 ovarian) was 33.9 µM, the TGI (OVCAR-3 ovarian) was > 100 µM and the GI50 (SF-295 CNS) was 88 µM. For the same molecule, the TGI (SF-295 CNS) was > 100 µM, the GI50 (SF-539 CNS) was 46 µM and the TGI (SF-539 CNS) was > 100 µM. For the same molecule, the GI50 (NCI-H460 lung) was > 100 µM, the TGI (NCI-H460 lung) was > 100 µM and the GI50 (HCT-116 colon) was 29.4 µM. For the same molecule, the TGI (HCT-116 colon) was > 100 µM, the GI50 (SK-MEL-28 melanoma) was > 100 µM and the TGI (SK-MEL-28 melanoma) was > 100 µM. For the same molecule, the GI50 (NCI/ADR-RES ovarian) was 68.7 µM, the TGI (NCI/ADR-RES ovarian) was > 100 µM and the GI50 (786-0 renal) was 50.8 µM. For the same molecule, the TGI (786-0 renal) was > 100 µM, the GI50 (A549 NSCLC) was > 100 µM and the TGI (A549 NSCLC) was > 100 µM. For the same molecule, the GI50 (RXF 393 renal) was 12.8 µM, the TGI (RXF 393 renal) was 77.3 µM and the GI50 (T-47D breast) was 29.5 µM. For the same molecule, the TGI (T-47D breast) was > 100 µM, the GI50 (MOLT-4 leukemia) was 27.8 µM and the TGI (MOLT-4 leukemia) was > 100 µM. For the same molecule, the GI50 (DU-145 prostate) was 49 µM, the TGI (DU-145 prostate) was > 100 µM and the GI50 (MCF7 breast) was 48.9 µM. The TGI (MCF7 breast) was > 100 µM, the GI50 (SK-OV-3 ovarian) was 59.8 µM and the TGI (SK-OV-3 ovarian) was > 100 µM. For the same molecule, the GI50 (HT29 colon) was 43.4 µM, the TGI (HT29 colon) was > 100 µM and the GI50 (SK-MEL-5 melanoma) was 81 µM. The TGI (SK-MEL-5 melanoma) was > 100 µM, the GI50 (MDA-MB-231 breast) was > 100 µM and the TGI (MDA-MB-231 breast) was > 100 µM. For the same molecule, the GI50 (M14 melanoma) was > 100 µM, the TGI (M14 melanoma) was > 100 µM and the GI50 (SN12C renal) was 81.2 µM. The TGI (SN12C renal) was > 100 µM, the GI50 (HOP-62 NSCLC) was 88.5 µM and the TGI (HOP-62 NSCLC) was > 100 µM. For the same molecule, the GI50 (TK-10 renal) was 39.3 µM, the TGI (TK-10 renal) was > 100 µM and the GI50 (RPMI-8226 leukemia) was 38.4 µM. For the same molecule, the TGI (RPMI-8226 leukemia) was > 100 µM, the GI50 (SF-268 CNS) was 64.9 µM and the TGI (SF-268 CNS) was > 100 µM. The GI50 (OVCAR-4 ovarian) was 39.3 µM, the TGI (OVCAR-4 ovarian) was > 100 µM and the GI50 (U251 CNS) was > 100 µM. The TGI (U251 CNS) was > 100 µM, the GI50 (K-562 leukemia) was 35 µM and the TGI (K-562 leukemia) was > 100 µM. For the same molecule, the GI50 (NCI-H226 lung) was 34.2 µM, the TGI (NCI-H226 lung) was > 100 µM and the GI50 (LOX IMVI melanoma) was 44.4 µM. The TGI (LOX IMVI melanoma) was > 100 µM, the GI50 (SK-MEL-2 melanoma) was 35.3 µM and the TGI (SK-MEL-2 melanoma) was > 100 µM. The GI50 (CCRF-CEM leukemia) was 0.535 µM, the TGI (CCRF-CEM leukemia) was > 100 µM and the GI50 (SNB-75 CNS) was 22.4 µM. For the same molecule, the TGI (SNB-75 CNS) was > 100 µM, the GI50 (IGROV1 ovarian) was > 100 µM and the TGI (IGROV1 ovarian) was > 100 µM. For the same molecule, the GI50 (HS 578T breast) was 67.8 µM, the TGI (HS 578T breast) was > 100 µM and the GI50 (HCT-15 colon) was 42.3 µM. For the same molecule, the TGI (HCT-15 colon) was > 100 µM, the GI50 (SR leukemia) was 33.6 µM and the TGI (SR leukemia) was > 100 µM. The GI50 (SW-620 colon) was 85.3 µM, the TGI (SW-620 colon) was > 100 µM and the GI50 (NCI-H23 lung) was 38.7 µM. For the same molecule, the TGI (NCI-H23 lung) was > 100 µM, the GI50 (MDA-MB-435) was > 100 µM and the TGI (MDA-MB-435) was > 100 µM. The GI50 (MALME-3M melanoma) was > 100 µM and the TGI (MALME-3M melanoma) was > 100 µM.
